Results published in article PMC4728427, “Mechanism of allosteric activation of TMEM16A/ANO1 channels by a commonly used chloride channel blocker” (British Journal of Pharmacology, 2016).

Biological target: T1, Mouse TMEM16A (Mus musculus, UniProt Q8BHY3)
T1 construct: expressed in transfected cells; host or cells: HEK-293T
T1 sequence (Q8BHY3 1-960): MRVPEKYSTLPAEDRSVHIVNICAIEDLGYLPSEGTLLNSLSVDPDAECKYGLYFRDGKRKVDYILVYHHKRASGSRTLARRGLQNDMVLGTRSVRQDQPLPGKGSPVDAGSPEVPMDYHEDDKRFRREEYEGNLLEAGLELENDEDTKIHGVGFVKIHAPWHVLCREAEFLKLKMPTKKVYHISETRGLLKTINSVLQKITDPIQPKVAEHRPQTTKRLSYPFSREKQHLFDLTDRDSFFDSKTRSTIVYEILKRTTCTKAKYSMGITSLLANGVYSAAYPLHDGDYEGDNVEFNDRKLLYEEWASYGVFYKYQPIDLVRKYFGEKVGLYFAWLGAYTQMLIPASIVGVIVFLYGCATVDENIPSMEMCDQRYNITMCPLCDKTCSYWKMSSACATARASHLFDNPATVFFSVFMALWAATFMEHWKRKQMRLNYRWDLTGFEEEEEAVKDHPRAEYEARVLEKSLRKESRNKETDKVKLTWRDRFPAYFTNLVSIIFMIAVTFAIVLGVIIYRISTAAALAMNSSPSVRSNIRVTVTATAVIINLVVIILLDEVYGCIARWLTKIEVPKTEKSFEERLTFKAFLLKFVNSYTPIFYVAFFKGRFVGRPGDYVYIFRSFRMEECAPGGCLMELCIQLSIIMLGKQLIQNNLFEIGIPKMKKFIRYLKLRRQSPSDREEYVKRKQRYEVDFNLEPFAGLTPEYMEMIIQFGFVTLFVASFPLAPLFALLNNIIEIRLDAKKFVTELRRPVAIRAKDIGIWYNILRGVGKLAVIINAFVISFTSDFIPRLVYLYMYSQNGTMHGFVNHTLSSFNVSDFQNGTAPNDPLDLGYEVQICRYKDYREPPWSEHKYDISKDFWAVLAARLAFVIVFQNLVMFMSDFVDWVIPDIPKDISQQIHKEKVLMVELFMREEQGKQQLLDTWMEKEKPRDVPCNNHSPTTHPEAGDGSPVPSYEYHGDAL
Assay: Steady-state activation curve (conductance versus Vm, Boltzmann fit)
Type: cell-based
Protocol: The voltage‐dependence of TMEM16A channels was assessed by constructing conductance (G) versus V m relationships in the presence of various [Ca^2+]i. A 1 s pre‐pulse applied to different V m (from −100 to +180 mV in 40 mV increments) was followed by a 0.5 s tail pulse to −60 mV. These pulses were elicited every 2 s from a holding V m of 0 mV. Tail currents were fitted with a single exponential function and the instantaneous tail current amplitude (I tail) estimated from extrapolation of the fit to the beginning of the tail pulse. G was calculated as G = I tail/(V m − E Cl), and normalized G (G/G max) was plotted against the V m of the pre‐pulse. The G versus V m relationships were fitted with the Boltzmann equation of the following form: (5) G/Gmax=1/1+expzgV0.5−VF/RT,
where z g is the number of gating charges moving through the applied transmembrane electric field during channel activation, and V 0.5 is the voltage at which the G is half‐maximal and depends on the conformational energy required for the channel to open.
To examine the possible effects of A9C on TMEM16A channel [Ca^2+]i‐sensitivity, the conductance versus V m relationships were assessed at various [Ca^2+]i in the absence or presence of various [A9C]ext (Figure 10 and Table 3). In the absence of extracellular A9C, V 0.5 (derived from fit with Equation (5)) shifted progressively to lower values as the [Ca^2+]i was increased from 300 to 1000 nM (Table 3). Extracellular A9C dramatically shifted the steady‐state activation curves to the left (Figure 10 and Table 3) to a similar extent for all [Ca^2+]i tested.

[1] = ~300 nM [Ca2+]i, 300 μM [A9C]ext
[2] = ~300 nM [Ca2+]i, 1000 μM [A9C]ext
[3] = ~600 nM [Ca2+]i, 300 μM [A9C]ext
[4] = ~600 nM [Ca2+]i, 1000 μM [A9C]ext
[5] = ~1000 nM [Ca2+]i, 300 μM [A9C]ext
[6] = ~1000 nM [Ca2+]i, 1000 μM [A9C]ext

V 0.5 (Boltzmann fit) [1]: 124 ± 9 (n = 8) mV
z g (Boltzmann fit) [1]: 0.7 ± 0.1 (n = 8)
V 0.5 (Boltzmann fit) [2]: 89 ± 7 (n = 14) mV
z g (Boltzmann fit) [2]: 0.7 ± 0.1 (n = 14)
V 0.5 (Boltzmann fit) [3]: 45 ± 4 (n = 8) mV
z g (Boltzmann fit) [3]: 0.7 ± 0.1 (n = 8)
V 0.5 (Boltzmann fit) [4]: 18 ± 4 (n = 14) mV
z g (Boltzmann fit) [4]: 0.7 ± 0.1 (n = 14)
V 0.5 (Boltzmann fit) [5]: −15 ± 8 (n = 5) mV
z g (Boltzmann fit) [5]: 0.9 ± 0.1 (n = 5)
V 0.5 (Boltzmann fit) [6]: −22 ± 6 (n = 9) mV
z g (Boltzmann fit) [6]: 0.9 ± 0.1 (n = 9)
Structure (SMILES): O=C(O)c1c2ccccc2cc2ccccc12 [A9C, Anthracene‐9‐carboxylic acid]
